What is called EC50 is the concentration giving half of the maximal effect. A high value points to a less potent agent. For orientation: half-life means how long it takes for the measured level to halve.

In series [1] the test system is Salmonella typhimurium TA98. The series can be described thus: Ames reverse mutation test, TA98. As to the method:
(§1) For each strain, treatment with a single concentration of 200 μg/plate was performed in triplicate and mutation was checked.

Series [2] has as its target AMP-activated protein kinase (AMPK). The series can be described thus: AMPK kinase assay (luminescence, purified enzyme, ATP, substrate peptide). In kind it is biochemical. The following applies: AMPK activation. The procedure: In order to identify an effect of the Preparation Example 6 having the highest docking score in Experimental Example 1 on activity of the AMP-activated protein kinase (AMPK), a kinase assay was performed. The kinase assay was performed as follows. […] Then, purified AMP-activated protein kinase and ATP were allowed to react on a substrate peptide for the AMP-activated protein kinase, and degrees of luminescence thereof were shown as EC50 in Table 3 and FIG. 3.

A further series can be described thus: Half-life test. From the text: In order to identify whether the Preparation Example 6 according to the present invention can be orally administered, a half-life of the compound was checked. […] The results are illustrated in FIG. 18.
The subject of series [3] is Salmonella typhimurium TA100. As to the method: as §1
Series [4] concerns amyloid-beta peptide1-42 degenerative neurological disease-induced mice. The series can be described thus: Morris water maze test. In kind it is in vivo, ICR mice. As to conditions: donepezil group. An excerpt: Six-week-old ICR mice (male) were purchased, and then examined for general health for 6 days while subjecting them to quarantine and acclimation under an environment of animal breeding room. Then, healthy individuals were selected and used for the experiment. Identification of each individual was made by marking the number of each individual on the tail using a permanent marker, and identification of a breeding box was made by attaching an individual identification card on which test number, test substance name, test item, date of acquisition, acclimation period, date of grouping, test period, sex/animal number, and person in charge are indicated.
(§2) In order to induce a degenerative neurological disease, the experimental animals of Preparatory Example 1 were anesthetized by inhalation with 2.5% isoflurane. Then, 1 μg of amyloid-beta peptide1-42, a degenerative neurological disease-inducing substance, was administered to the animals at both hippocampal positions (AP: −2.3, L: ±2.0, H: −1.5) using a stereotaxic apparatus. […] For the administration, 1 μl was injected, at a flow rate of 0.2 μl/min, with a […] gas-tight glass syringe (Hamilton, Reno, NV, USA) using a perfusion pump (Pump 22, Harvard Apparatus, South Natick, MA, USA). Subsequently, the syringe was allowed to stand for 5 minutes and then removed.
(§3) Then, a degenerative neurological disease was induced as in Preparation Example 2.
After induction of the degenerative neurological disease, the following test was conducted after a one-day recovery period passed.
(§4) A circular pool (diameter: 120 cm, height: 75 cm) was filled with water to a depth of 25±1 cm as in FIG. 4, and a 24 cm platform was prepared by hiding it 1 cm below the water surface. Space cues were installed on the four sides of the wall so that the aminals can identify locations, and skimmed milk powder was dissolved into water so that the animals cannot identify the platform with naked eyes. One day before the experiment, all the experimental animals were allowed to swim freely for 1 minute in a water bath having no platform, so that the animals can adapt to the swimming situation. After that, a test group was allowed to start, in any order, from two of the three quadrants except the quadrant where the platform was placed, and allowed to find the platform for 60 seconds. In a case where an animal finds the platform, the animal was allowed to stay thereon for 20 seconds. […] As soon as end of the position learning time, which is the 20-second staying time, the animal was allowed to start again from any quadrant, and the time and distance to reach the platform were measured. The procedure was performed four times a day, and all procedures were taken with a camera and analyzed with a video tracking system (Panlab, USA). Probe trials were made on the fifth day after the four-day experiment in toal was completed. The test group was allowed to swim freely for 90 seconds without the platform, thereby performing evaluation on whether the test group holds a memory of the platform location. The results are illustrated in FIGS. 5 to 7.

Series [5] shares this test system. The series can be described thus: Probe test (Morris water maze, platform removed). In kind it is in vivo, ICR mice. As to conditions: donepezil group, 90 seconds without platform, p<0.01 vs beta-amyloid group. As to the method:
as §2, §3, §4
The results are illustrated in FIGS. 8 and 9.

For `O=[N+]([O-])c1ccc2c(c1)Cc1ccccc1-2` [2-Nitrofluorene, 2-nitrofluorene, reference compound], the “Reverse mutation [factor] w/o S-9 mix” value in series [1] (TA98, without S-9, factor versus control) was 915.0]. Further, in series [1] (TA98, without S-9, Preparation Example 6 at 200 μg/plate, 2-Nitrofluorene concentration 2), the “Reverse mutation/dish (mean ± SD) w/o S-9 mix” value is 290 ± 8.
For `NC(=O)c1ncn([C@@H]2O[C@H](CO)[C@@H](O)[C@H]2O)c1N` [AICAR, reference compound], in series [2], the EC50 came out at 299 nM.
In “Half-life test”, `Oc1ccc(C=Cc2cc(O)cc(O)c2)cc1` [Resveratrol, reference compound] displayed a half-life of 8 to 10 min.
Turning to `[N-]=[N+]=[N-]` [Sodium azide, sodium azide, reference compound], in series [3] (TA100, without S-9, factor versus control), the “Reverse mutation [factor] w/o S-9 mix” value is “[5.5]”. For the same compound, the “Reverse mutation/dish (mean ± SD) w/o S-9 mix” value in series [3] (TA100, without S-9, Preparation Example 6 at 200 μg/plate, Sodium azide concentration 1) is on record as 618 ± 13.
Turning to `COc1cc2c(cc1OC)C(=O)C(CC1CCN(Cc3ccccc3)CC1)C2` (stereo not drawn) [donepezil, reference compound], in series [4], the “maximum time to find the platform (escape latency)” value is given as 111.99 (±22.59) seconds and the “minimum time to find the platform (escape latency)” value is recorded as 30.82 (±13.96) seconds. The “swimming time in the target quadrant” value in series [5] is 39.04 (±8.68) seconds.

The record behind these values is patent US20250376441A1, “NOVEL COMPOUND AND PHARMACEUTICAL COMPOSITION COMPRISING SAME AS ACTIVE INGREDIENT” (Industry-Academic Cooperation Foundation, Yonsei University, priority 2017, published 2025).
